Assay results taken from article PMC10331597 (Redox Biology, 2023).

Target: Keap1 (Homo sapiens, UniProt Q14145)
Assay: Fluorescence anisotropy assay
Type: binding
Conditions: for Kd: Keap1-Nrf2 binding affinity, fluorescence anisotropy assay, duplicated experiment, average; for activity in Keap1-Nrf2 fluorescence anisotropy assay: at 10 μM

Chain of Keap1 (Q14145 whole entry): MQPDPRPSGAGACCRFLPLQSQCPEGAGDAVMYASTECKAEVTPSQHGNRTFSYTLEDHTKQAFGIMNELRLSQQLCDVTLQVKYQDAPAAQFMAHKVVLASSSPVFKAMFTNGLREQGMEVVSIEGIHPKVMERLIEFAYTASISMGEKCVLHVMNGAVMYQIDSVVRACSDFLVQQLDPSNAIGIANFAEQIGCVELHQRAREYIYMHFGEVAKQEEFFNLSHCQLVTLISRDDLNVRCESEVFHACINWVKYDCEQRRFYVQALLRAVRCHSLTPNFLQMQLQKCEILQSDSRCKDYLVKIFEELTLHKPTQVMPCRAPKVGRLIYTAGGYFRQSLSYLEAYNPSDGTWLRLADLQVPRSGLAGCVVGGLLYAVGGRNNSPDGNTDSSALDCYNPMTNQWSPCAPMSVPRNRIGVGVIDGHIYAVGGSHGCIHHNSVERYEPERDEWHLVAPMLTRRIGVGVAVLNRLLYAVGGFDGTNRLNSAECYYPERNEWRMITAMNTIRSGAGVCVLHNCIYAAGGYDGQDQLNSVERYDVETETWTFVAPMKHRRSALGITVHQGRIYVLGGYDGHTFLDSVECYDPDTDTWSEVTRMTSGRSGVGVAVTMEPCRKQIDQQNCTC

Q: How did the Kd turn out when COc1ccc(S(=O)(=O)N(CC(N)=O)c2ccc(N(CC(N)=O)S(=O)(=O)c3cccc4ccccc34)c3ccccc23)cc1 [Compound A1, 2-(N-(4-((N-(2-amino-2-oxoethyl)-4-methoxyphenyl)sulfonamido)naphthalen-1-yl)naphthalene-1-sulfonamido)acetamide] was run?
A: The Kd was greater than 10000 nM.

Q: What about the “activity in Keap1-Nrf2 fluorescence anisotropy assay” value (“activity” for short) of the same compound?
A: Its value is “did not show apparent activity”.

Q: Which Kd does the source give for COc1ccc(S(=O)(=O)N(CC(N)=O)c2ccc(N(CC(N)=O)S(=O)(=O)c3ccc4ccccc4c3)c3ccccc23)cc1 [Compound A2, 2-(N-(4-((N-(2-amino-2-oxoethyl)-4-methoxyphenyl)sulfonamido)naphthalen-1-yl)naphthalene-2-sulfonamido)acetamide] here?
A: Its Kd is 1300 nM.

Q: COc1ccc(S(=O)(=O)N(CC(N)=O)c2ccc(N(CC(N)=O)S(=O)(=O)c3ccc(-c4ccccc4)cc3)c3ccccc23)cc1 [Compound A3, 2-(N-(4-((N-(2-amino-2-oxoethyl)-4-methoxyphenyl)sulfonamido)naphthalen-1-yl)-[1,1'-biphenyl]-4-sulfonamido)acetamide] was tested. Which Kd did it give?
A: Its Kd is greater than 10000 nM.

Q: What about the “activity” value of the same compound?
A: Its value is “did not show apparent activity”.

Q: How did the Kd turn out when COc1ccc(S(=O)(=O)N(CC(N)=O)c2ccc(N(CC(N)=O)S(=O)(=O)c3cccs3)c3ccccc23)cc1 [Compound A4, 2-(N-(4-((N-(2-amino-2-oxoethyl)-4-methoxyphenyl)sulfonamido)naphthalen-1-yl)thiophene-2-sulfonamido)acetamide] was run?
A: The Kd was 1110 nM.

Q: Which results are given for COc1ccc(S(=O)(=O)N(CC(N)=O)c2ccc(N(CC(N)=O)S(=O)(=O)c3ccc(Cl)nc3)c3ccccc23)cc1 [Compound A5, 2-((N-(4-((N-(2-amino-2-oxoethyl)-4-methoxyphenyl)sulfonamido)naphthalen-1-yl)-6-chloropyridine)-3-sulfonamido)acetamide]?
A: Kd: > 10000 nM; activity in Keap1-Nrf2 fluorescence anisotropy assay: did not show apparent activity

Q: How did the Kd turn out when COc1ccc(S(=O)(=O)N(CC(N)=O)c2ccc(N(CC(N)=O)S(=O)(=O)N3CCOCC3)c3ccccc23)cc1 [Compound A6, 2-(N-(4-((N-(2-amino-2-oxoethyl)-4-methoxyphenyl)sulfonamido)naphthalen-1-yl)morpholine-4-sulfonamido)acetamide] was run?
A: The Kd was 2070 nM.

Q: How did the Kd turn out when COc1ccc(S(=O)(=O)N(CC(N)=O)c2ccc(N(CC(N)=O)S(=O)(=O)c3sc(N(CC(N)=O)C(C)=O)nc3C)c3ccccc23)cc1 [Compound A7, N-(2-amino-2-oxoethyl)-N-(5-(N-(2-amino-2-oxoethyl)-N-(4-((N-(2-amino-2-oxoethyl)-4-methoxy-phenyl)sulfonamido)naphthalen-1-yl)sulfamoyl)-4-methylthiazol-2-yl)acetamide] was run?
A: The Kd was 1430 nM.

Q: Which Kd does the source give for COc1ccc(S(=O)(=O)N(CC(N)=O)c2ccc(N(CC(N)=O)S(=O)(=O)c3cn(C)cn3)c3ccccc23)cc1 [Compound A8, 2-((N-(4-((N-(2-amino-2-oxoethyl)-1-methyl-1H-imidazole)-4-sulfonamido)naphthalen-1-yl)-4-methoxyphenyl)sulfonamido)acetamide] here?
A: Its Kd is 1150 nM.

Q: Which Kd does the source give for COc1ccc(S(=O)(=O)N(CC(N)=O)c2ccc(N(CC(N)=O)S(=O)(=O)c3cnn(C)c3)c3ccccc23)cc1 [Compound A9, 2-((N-(4-((N-(2-amino-2-oxoethyl)-1-methyl-1H-pyrazole)-4-sulfonamido)naphthalen-1-yl)-4-methoxyphenyl)sulfonamido)acetamide] here?
A: Its Kd is 1140 nM.

Q: With COc1ccc(S(=O)(=O)N(CC(N)=O)c2ccc(N(CC(N)=O)S(=O)(=O)c3c(C)c(C)c4c(c3C)CC(C)(C)O4)c3ccccc23)cc1 [Compound A10, 2-((N-(4-((N-(2-amino-2-oxoethyl)-2,2,4,6,7-pentamethyl-2,3-dihydrobenzofuran)-5-sulfonamido)naphthalen-1-yl)-4-methoxyphenyl)sulfonamido)acetamide] as the compound, how does the Kd read?
A: The Kd was 3270 nM.

Q: With COc1ccc(S(=O)(=O)N(CC(N)=O)c2ccc(N(CC(N)=O)S(=O)(=O)c3ccc4c(c3)CCO4)c3ccccc23)cc1 [Compound A11, 2-((N-(4-((N-(2-amino-2-oxoethyl)-2,3-dihydrobenzofuran)-5-sulfonamido)naphthalen-1-yl)-4-methoxyphenyl)sulfonamido)acetamide] as the compound, how does the Kd read?
A: The Kd was 1280 nM.

Q: What does the source list for COc1ccc(S(=O)(=O)N(CC(N)=O)c2ccc(N(CC(N)=O)S(=O)(=O)c3c(C)noc3C)c3ccccc23)cc1 [Compound A12, 2-((N-(4-((N-(2-amino-2-oxoethyl)-3,5-dimethylisoxazole)-4-sulfonamido)naphthalen-1-yl)-4-methoxyphenyl)sulfonamido)acetamide]?
A: Kd: > 10000 nM; activity in Keap1-Nrf2 fluorescence anisotropy assay: did not show apparent activity

Q: Which Kd does the source give for COc1ccc(S(=O)(=O)N(CC(N)=O)c2ccc(N(CC(N)=O)S(=O)(=O)c3sc4ccc(Cl)cc4c3C)c3ccccc23)cc1 [Compound A13, 2-((N-(4-((N-(2-amino-2-oxoethyl)-4-methoxyphenyl)sulfonamido)naphthalen-1-yl)-5-chloro-3-methylbenzo[b]thiophene)-2-sulfonamido)acetamide] here?
A: Its Kd is greater than 10000 nM.

Q: And the “activity” value?
A: The value was “did not show apparent activity”.
